# From US20230201118A1, “PRODRUG COPOLYMERS AND POLYMERIC MICELLES THEREOF FOR THE DELIVERY OF SHORT-CHAIN FATTY ACIDS, THE PROMOTION OF GUT HEALTH, AND THE TREATMENT OF IMMUNE AND/OR INFLAMMATORY CONDITIONS AND FOOD ALLERGY” (The University of Chicago, priority 2021, published 2023)
# Test system: APCs in the draining LNs
# Assay: Subcutaneous LPS stimulation: activation markers CD40 and CD86 on APCs in draining LNs
# Assay type: in vivo, mouse
# Settings: s.c. treatment, LPS challenge on Day 6
# Procedure: In order to assess the ability of lymph node targeted Neg-ButM in suppressing the activation of APCs, the investors tested on a mouse model of subcutaneous lipopolysaccharide (LPS) stimulation and evaluated on the activation marker including CD40 and CD86 on the major APCs in the draining LNs. Mice were injected with either PBS, sodium butyrate (NaBut), NtL-ButM, or Neg-ButM subcutaneously at the abdomen site. On Day 6, Mice were challenged with LPS on the same injection site, and sacrificed the next day for the cellular analysis.
smiles,measurement,value
CCCC(=O)[O-].[Na+] [sodium butyrate],suppression of APC activation,"neither the NtL-ButM, nor sodium butyrate showed any significant suppression on the APC activations"
